Columns and labels:
[1] = test system: GX_P2V; test: microbe, parasite or virus in culture; type: cell-based, Guangxi pangolin-CoV (GX_P2V); settings: for inhibition at 0.193125 µM / inhibition at 0.78 µM / inhibition at 0.79588 µM / inhibition at 1.09691 µM / inhibition at 1.69897 µM / inhibition at 0.49485 µM / inhibition at 0.39 µM / inhibition at 0.193 µM / inhibition at 0.495 µM / inhibition at 0.796 µM / inhibition at 1.097 µM / inhibition at 1.398 µM / inhibition at 1.699 µM / inhibition at 1.39794 µM: Vero C1008, 48 h, read-out: Percentage of Inhibition (%); for EC50: Vero C1008, read-out: EC50 against GX_P2V
[2] = test system: Vero E6 cells; test: cells; settings: Chlorocebus sabaeus, Vero C1008, 48 h, read-out: Cytoxicity (%)
[3] = test system: SARS-CoV-2 trVLP; test: microbe, parasite or virus in culture; settings: Severe acute respiratory syndrome coronavirus 2, read-out: EC50 against SARS-CoV-2 trVLP

## COc1cc2c(cc1O)[C@H](Cc1ccc(O)cc1)N(C)CC2 [(S)-N-Methylcolaurine]
[1]
  inhibition at 0.193125 µM: 17.4%
  inhibition at 0.78 µM: 15.1%
  inhibition at 0.79588 µM: 91.1%
  inhibition at 1.09691 µM: 52.6%
  inhibition at 1.69897 µM: 20.9%
[2]
  cytotoxicity at 0.193125 µM: 6.97%
  cytotoxicity at 0.78 µM: 47%
  cytotoxicity at 1.39794 µM: 2.6%

## COc1cc2c(cc1O)C(Cc1ccc(O)cc1)NCC2 (stereo not drawn) [Compound 11, coclaurine]
[1]
  inhibition at 0.49485 µM: 33.2%
  inhibition at 1.69897 µM: 28.7%
[2]
  cytotoxicity at 0.193125 µM: 8.1%

## Oc1ccc(C[C@@H]2NCCc3cc(O)c(O)cc32)cc1 [Compound 6, norcoclaurine]
[1]
  inhibition at 0.39 µM: 55.7%
  inhibition at 0.78 µM: 83.5%
  inhibition at 0.79588 µM: 68.5%
[2]
  cytotoxicity at 0.193125 µM: 41.2%
  cytotoxicity at 0.39 µM: 28.8%
  cytotoxicity at 0.49485 µM: 9.98%
  cytotoxicity at 0.79588 µM: 52.9%
  cytotoxicity at 1.09691 µM: 10.9%

## COc1ccc(C[C@@H]2c3cc(Oc4cc(C[C@@H]5c6cc(OC)c(OC)cc6CCN5C)ccc4O)c(OC)cc3CCN2C)cc1 [Neferine (33), Neferine]
[3]
  EC50: 6240 nM
[1]
  inhibition at 0.193 µM: 92.5%
  inhibition at 0.495 µM: 91.2%
  inhibition at 0.796 µM: 91.6%
  inhibition at 1.097 µM: 100%
  inhibition at 1.398 µM: 100%
  inhibition at 1.699 µM: 100%
  EC50: 980 nM

## NCCc1ccc(O)c(O)c1 [Compound 4, dopamine, reference compound]
[1]
  Antiviral activity (bioactivity) in dose-response analysis: do not
  inhibition at 0.193125 µM: 46.7%
  inhibition at 0.39 µM: 33.8%
  inhibition at 0.49485 µM: 92.6%
  inhibition at 0.79588 µM: 41.1%
[2]
  cytotoxicity at 0.49485 µM: 23.1%
  cytotoxicity at 0.78 µM: 31.1%
  cytotoxicity at 1.69897 µM: 10.6%

## COc1cc2c(cc1OC)C(Cc1ccc(O)c(Oc3cc4c(cc3OC)CCN(C)C4Cc3ccc(O)cc3)c1)N(C)CC2 (stereo not drawn) [Liensinine (34), liensinine]
[3]
  EC50: 3090 nM
[1]
  inhibition at 0.193 µM: 93.8%
  inhibition at 0.495 µM: 84.2%
  inhibition at 0.78 µM: 68.4%
  inhibition at 0.796 µM: 74.4%
  inhibition at 1.097 µM: 87.3%
  inhibition at 1.398 µM: 100%
  inhibition at 1.699 µM: 100%
  EC50: 700 nM

## COc1ccc(C[C@H]2c3cc(O)c(OC)cc3CCN2C)cc1O [Compound 12, reticuline]
[1]
  inhibition at 0.39 µM: 81.7%
  inhibition at 0.49485 µM: 27.4%
  inhibition at 0.78 µM: 60%
  inhibition at 0.79588 µM: 65.7%
  inhibition at 1.09691 µM: 49.6%
  inhibition at 1.39794 µM: 28.1%

## COc1cc2c(cc1O)-c1cc3ccc(OC)c(OC)c3c[n+]1CC2 [Columbamine]
[1]
  inhibition at 1.09691 µM: 49.9%
  inhibition at 1.39794 µM: 66.7%
[2]
  cytotoxicity at 0.79588 µM: 34.5%

## COc1cc2c(cc1O)[C@@H]1Cc3ccc(OC)c(O)c3CN1CC2 [(S)-Scoulerine]
[1]
  inhibition at 0.49485 µM: 24.5%
[2]
  cytotoxicity at 0.193125 µM: 25%
  cytotoxicity at 0.39 µM: 27.5%
  cytotoxicity at 0.49485 µM: 25.7%
  cytotoxicity at 1.09691 µM: 33.9%
  cytotoxicity at 1.69897 µM: 34%

## COc1cc(C[C@H]2c3cc(OC)c(OC)c(OC)c3CCN2C)c(Oc2cc3c(cc2OC)-c2c(OC)c(OC)c(OC)c4c2[C@H](C3)N(C)CC4)cc1OC [Methoxyadiantifoline (37), methoxyadiantifoline]
[1]
  Percentage of Inhibition (%): 100.000%

Reference: PMC10879537 (Nature Communications, 2024)
